Measurements taken from the supplement of paper PMC8612539.
≈ marks a conversion by molar mass, not a printed value.

Assays:
Mannheimia haemolytica = test: minimum inhibitory concentration (MIC)
Protocol: (§1)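 Broth microdilution MIC (Sensititre BOPO7F bovine plate, CLSI methods) of 19 antimicrobials against field isolates of P. multocida, M. haemolytica, H. somni (deep nasopharyngeal swabs) and E. coli, Enterococcus spp. (rectal swabs) from weaned dairy heifers. Incubation 16-24 h at 35 C. MIC is the lowest concentration preventing visible growth. Values with <= or > lie at the tested range limits. Trimethoprim-sulfamethoxazole is given as the trimethoprim component of a 1:19 mixture.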

Enterococcus spp. = test: minimum inhibitory concentration (MIC)
Protocol: as §1

CC[C@H]1OC(=O)C[C@@H](O)[C@H](C)[C@@H](O[C@@H]2O[C@H](C)[C@@H](O)[C@H](N(C)C)[C@H]2O)[C@@H](CCN2CCCCC2)C[C@@H](C)C(=O)/C=C/C(C)=C/[C@@H]1CN1CCCCC1 [Tildipirosin]
minimum inhibitory concentration [µg/mL]
Settings	Enterococcus spp.	Mannheimia haemolytica
isolate (source animal id): 2	8 (≈ 10.9 µM)	–
isolate (source animal id): 35	> 16	–
isolate (source animal id): 42	8 (≈ 10.9 µM)	–
isolate (source animal id): 44	16 (≈ 21.8 µM)	–
isolate (source animal id): 79	16 (≈ 21.8 µM)	–
isolate (source animal id): 88	8 (≈ 10.9 µM)	–
isolate (source animal id): 91	8 (≈ 10.9 µM)	–
isolate (source animal id): 92	16 (≈ 21.8 µM)	–
isolate (source animal id): 111	8 (≈ 10.9 µM)	–
isolate (source animal id): 122	> 16	–
isolate (source animal id): 123	16 (≈ 21.8 µM)	–
isolate (source animal id): 133	8 (≈ 10.9 µM)	–
isolate (source animal id): 158	> 16	–
isolate (source animal id): 168	> 16	–
isolate (source animal id): 169	16 (≈ 21.8 µM)	–
isolate (source animal id): 171	16 (≈ 21.8 µM)	–
isolate (source animal id): 175	> 16	–
isolate (source animal id): 177	> 16	–
isolate (source animal id): 181	16 (≈ 21.8 µM)	–
isolate (source animal id): 182	16 (≈ 21.8 µM)	–
isolate (source animal id): 183	8 (≈ 10.9 µM)	–
isolate (source animal id): 187	16 (≈ 21.8 µM)	–
isolate (source animal id): 190	16 (≈ 21.8 µM)	–
isolate (source animal id): 194	16 (≈ 21.8 µM)	–
isolate (source animal id): 195	16 (≈ 21.8 µM)	–
isolate (source animal id): 197	16 (≈ 21.8 µM)	–
isolate (source animal id): 211	16 (≈ 21.8 µM)	–
isolate (source animal id): 214	16 (≈ 21.8 µM)	–
isolate (source animal id): 222	16 (≈ 21.8 µM)	–
isolate (source animal id): 223	8 (≈ 10.9 µM)	–
isolate (source animal id): 228	> 16	–
isolate (source animal id): 230	> 16	–
isolate (source animal id): 235	> 16	–
isolate (source animal id): 236	8 (≈ 10.9 µM)	–
isolate (source animal id): 239	8 (≈ 10.9 µM)	–
isolate (source animal id): 241	> 16	–
isolate (source animal id): 244	16 (≈ 21.8 µM)	–
isolate (source animal id): 246	16 (≈ 21.8 µM)	–
isolate (source animal id): 247	> 16	–
isolate (source animal id): 250	16 (≈ 21.8 µM)	–
isolate (source animal id): 252	> 16	–
isolate (source animal id): 268	> 16	–
isolate (source animal id): 282	8 (≈ 10.9 µM)	–
isolate (source animal id): 285	> 16	–
isolate (source animal id): 288	–	≤ 1
isolate (source animal id): 289	16 (≈ 21.8 µM)	–
isolate (source animal id): 290	16 (≈ 21.8 µM)	–
isolate (source animal id): 291	–	≤ 1
isolate (source animal id): 293	–	16 (≈ 21.8 µM)
isolate (source animal id): 296	16 (≈ 21.8 µM)	–
isolate (source animal id): 298	8 (≈ 10.9 µM)	> 16
isolate (source animal id): 299	–	> 16
isolate (source animal id): 300	–	≤ 1
isolate (source animal id): 301	8 (≈ 10.9 µM)	–
isolate (source animal id): 302	–	> 16
isolate (source animal id): 304	–	> 16
isolate (source animal id): 306	–	≤ 1
isolate (source animal id): 308	–	≤ 1
isolate (source animal id): 309	–	≤ 1
isolate (source animal id): 310	> 16	–
isolate (source animal id): 313	–	> 16
isolate (source animal id): 318	–	8 (≈ 10.9 µM)
isolate (source animal id): 320	8 (≈ 10.9 µM)	≤ 1
isolate (source animal id): 321	–	> 16
isolate (source animal id): 323	–	> 16
isolate (source animal id): 324	–	16 (≈ 21.8 µM)
isolate (source animal id): 326	–	> 16
isolate (source animal id): 328	–	> 16
isolate (source animal id): 329	–	> 16
isolate (source animal id): 331	8 (≈ 10.9 µM)	–
isolate (source animal id): 333	16 (≈ 21.8 µM)	> 16
isolate (source animal id): 335	–	16 (≈ 21.8 µM)
isolate (source animal id): 338	–	16 (≈ 21.8 µM)
isolate (source animal id): 341	> 16	–
